Laboratory results as given in patent publication US12048764B2, “Levodopa infusion solution” (DIZLIN PHARMACEUTICALS AB, priority 2017, dated 2024).

Tests used:
[1] = Preliminary patient trial: s.c./i.v. infusion versus intestinal Duodopa, plasma levodopa and carbidopa; assay type: in vivo, patients with Parkinson's disease
Source text: The trial results are from 3 randomly selected patients of a larger study, and for each patient subcutaneous, intravenous injection and intestinal administration was compared.
The study was a prospective, randomized, 3-period cross-over, open-label multicentre trial comparing intravenous and subcutaneous infusion of the preferred aqueous pharmaceutical solution with intestinal Duodopa (LCIG) performed according to the principles of Good Clinical Practice (GCP). The trial included patients with Parkinson's disease who are on Duodopa treatment because of severe on-off manifestation when on oral levodopa. During one treatment visit, patients receive Duodopa at optimal dosage for 16 hours, during another treatment visit, the patients received an i.v. infusion of the preferred aqueous pharmaceutical solution at a concentration estimated to yield corresponding serum levels of levodopa for the same duration, and at a third treatment visit the patients received the corresponding amount of levodopa but in the form of s.c. infusion. Blood samples were drawn according to a set schedule during the treatment visits for up to 24 h. […]
Levodopa and carbidopa in patient's plasma was analysed by ultra-performance liquid chromatography-tandem mass spectrometry (UPLC-MS/MS) according to the principles of Good Laboratory Practice (GLP).

[2] = cited from earlier work

N[C@@H](Cc1ccc(O)c(O)c1)C(=O)O [levodopa]
levodopa concentration in the blood required for therapeutic effect ([1]; patient no 101, severe PD): 5,000-6,000 ng/mL
levodopa concentration in the blood required for therapeutic effect ([1]; patient no 103, moderate or mild PD): 1,600-1,700 ng/mL
concentration above which levodopa precipitates ([2]; pH values acceptable for continuous parenteral administration): 500 to 1000 µg/mL
levodopa concentration obtainable ([2]; pH<3 or pH>9): exceeding 5 mg/ml
